Reference: patent US20050209232A1, “Pyridazinone ureas as antagonists of alpha4 integrins” (priority 2004, published 2005)

Experiments:
[1] = biological target: T1, α4β1 (Homo sapiens, UniProt P05556+P13612); test: Ramos Cell Adhesion Assay (α4β1 Mediated Adhesion/VCAM-1); type: cell-based; conditions: Ramos cells adhering to recombinant hVCAM-1
T1 construct: Ramos cells, (50 μL at 2×10^6/mL) labeled with 5 μM Calcein AM; endogenous in cells; host or cells: Ramos cells
Procedure: Ramos Cell Adhesion Assay (α4β1 Mediated Adhesion/VCAM-1)
Immulon 96 well plates (Dynex) were coated with 100 μL recombinant hVCAM-1 at 4.0 μg/mL in 0.05 M NaCO3 buffer pH 9.0 overnight at 4° C. (R&D Systems). Plates were washed 2 times in PBS with 1% BSA and blocked for 1 h@room temperature in this buffer. PBS was removed and compounds to be tested (50 μL) were added at 2× concentration. Ramos cells, (50 μL at 2×10^6/mL) labeled with 5 μM Calcein AM (Molecular Probes) for 1 h at 37° C., were added to each well and allowed to adhere for 1 h at room temperature. Plates were washed 4 × in PBS+1% BSA and cells were lysed for 15 minutes in 100 μL of 1 M Tris pH 8.0 with 1% SDS. The plate was read at 485 nm excitation and 530 nm emission.

[2] = biological target: T2, human α4β7 integrin (Homo sapiens, UniProt P13612+P26010); test: α4β7-K562 Cell Adhesion Assay (α4β7 Mediated Adhesion/MAdCAM-1); type: cell-based; conditions: K562 cells expressing human α4β7 adhering to FLAG-hMAdCAM-1, 1 mM Mn2+
T2 construct: expressed in transfected cells; host or cells: K562 cells, stably transfected
T2 sequence (P13612 34-1032): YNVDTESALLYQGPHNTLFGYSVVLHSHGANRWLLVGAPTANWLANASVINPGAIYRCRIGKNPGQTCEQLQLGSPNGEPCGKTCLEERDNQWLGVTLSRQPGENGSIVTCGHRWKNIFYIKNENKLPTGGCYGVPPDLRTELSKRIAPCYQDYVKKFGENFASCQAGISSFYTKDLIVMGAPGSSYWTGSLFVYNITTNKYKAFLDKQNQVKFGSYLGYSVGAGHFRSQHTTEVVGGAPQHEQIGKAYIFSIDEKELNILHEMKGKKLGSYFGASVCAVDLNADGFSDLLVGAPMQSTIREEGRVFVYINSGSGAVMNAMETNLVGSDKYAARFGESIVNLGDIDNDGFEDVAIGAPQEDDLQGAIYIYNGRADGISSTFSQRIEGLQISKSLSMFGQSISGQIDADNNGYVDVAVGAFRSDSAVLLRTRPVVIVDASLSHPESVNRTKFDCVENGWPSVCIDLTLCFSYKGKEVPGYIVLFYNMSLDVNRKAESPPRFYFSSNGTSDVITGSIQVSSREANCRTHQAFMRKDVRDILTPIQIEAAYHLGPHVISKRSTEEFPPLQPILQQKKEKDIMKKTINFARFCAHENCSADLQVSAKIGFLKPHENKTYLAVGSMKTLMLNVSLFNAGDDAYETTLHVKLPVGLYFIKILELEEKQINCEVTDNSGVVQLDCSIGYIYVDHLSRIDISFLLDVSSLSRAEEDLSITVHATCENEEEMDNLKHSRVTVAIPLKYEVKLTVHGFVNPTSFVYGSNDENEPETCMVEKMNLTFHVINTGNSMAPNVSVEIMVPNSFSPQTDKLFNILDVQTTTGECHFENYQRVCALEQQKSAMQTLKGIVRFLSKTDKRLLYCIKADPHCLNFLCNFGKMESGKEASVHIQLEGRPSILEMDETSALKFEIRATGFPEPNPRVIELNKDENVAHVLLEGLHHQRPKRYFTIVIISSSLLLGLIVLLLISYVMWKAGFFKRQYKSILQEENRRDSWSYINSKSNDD
T2 sequence (P26010 20-798): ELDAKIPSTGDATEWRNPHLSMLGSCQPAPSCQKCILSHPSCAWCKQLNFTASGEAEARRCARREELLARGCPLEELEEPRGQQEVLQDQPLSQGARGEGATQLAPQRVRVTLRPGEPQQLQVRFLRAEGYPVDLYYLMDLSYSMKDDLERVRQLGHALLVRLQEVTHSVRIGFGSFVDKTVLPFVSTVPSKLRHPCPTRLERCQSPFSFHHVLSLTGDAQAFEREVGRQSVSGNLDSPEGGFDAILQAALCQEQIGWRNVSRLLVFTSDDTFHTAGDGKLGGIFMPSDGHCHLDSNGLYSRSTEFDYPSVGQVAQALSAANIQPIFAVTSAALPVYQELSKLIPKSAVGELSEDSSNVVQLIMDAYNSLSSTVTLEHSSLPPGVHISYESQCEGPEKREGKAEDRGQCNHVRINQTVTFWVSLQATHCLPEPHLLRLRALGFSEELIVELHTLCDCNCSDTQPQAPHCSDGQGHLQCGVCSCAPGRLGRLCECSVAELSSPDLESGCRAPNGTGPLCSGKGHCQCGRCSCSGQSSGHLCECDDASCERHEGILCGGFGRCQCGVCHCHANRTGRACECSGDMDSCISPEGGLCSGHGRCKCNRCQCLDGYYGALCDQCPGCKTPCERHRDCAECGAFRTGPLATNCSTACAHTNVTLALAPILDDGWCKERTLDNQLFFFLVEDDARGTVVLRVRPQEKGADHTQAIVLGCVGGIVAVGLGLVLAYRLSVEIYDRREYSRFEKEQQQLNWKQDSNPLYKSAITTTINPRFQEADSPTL
Procedure: α4β7-K562 Cell Adhesion Assay (α4β7 Mediated Adhesion/MAdCAM-1)
M2 anti-FLAG Antibody Coated 96-well plates (Sigma) were coated for 1 hour at 4° C. with 2-8 μL/well recombinant FLAG-hMAdCAM-1 contained in 100 μL of Dulbecco's PBS, pH 7.4, with 1% BSA and 1 mM Mn^2+ (PBS-BSA-Mn). Plates were washed once with PBS-BSA-Mn. Buffer was removed and compounds to be tested (50 μL) were added at 2× concentration. Stably transfected K562 cells expressing human α4β7 integrin, (50 μL at 2×10^6/mL) that had been labeled with 100 μg/mL carboxymethyl fluorescein diacetate succinimidyl ester (CFDA-SE; Molecular Probes) for 15 min at 37° C. were added to each well and allowed to adhere for 1 h at room temperature. Plates were washed 4× in PBS-BSA-Mn and then cells were lysed for 2 min by addtion of 100 μL of PBS without Ca^2+, Mg^2+ supplemented with 0.1 M NaOH. The plate was read on a 96-well fluorescent plate reader at 485 nm excitation and 530 nm emission.

T1 sequence (P05556 21-798, one chain of several): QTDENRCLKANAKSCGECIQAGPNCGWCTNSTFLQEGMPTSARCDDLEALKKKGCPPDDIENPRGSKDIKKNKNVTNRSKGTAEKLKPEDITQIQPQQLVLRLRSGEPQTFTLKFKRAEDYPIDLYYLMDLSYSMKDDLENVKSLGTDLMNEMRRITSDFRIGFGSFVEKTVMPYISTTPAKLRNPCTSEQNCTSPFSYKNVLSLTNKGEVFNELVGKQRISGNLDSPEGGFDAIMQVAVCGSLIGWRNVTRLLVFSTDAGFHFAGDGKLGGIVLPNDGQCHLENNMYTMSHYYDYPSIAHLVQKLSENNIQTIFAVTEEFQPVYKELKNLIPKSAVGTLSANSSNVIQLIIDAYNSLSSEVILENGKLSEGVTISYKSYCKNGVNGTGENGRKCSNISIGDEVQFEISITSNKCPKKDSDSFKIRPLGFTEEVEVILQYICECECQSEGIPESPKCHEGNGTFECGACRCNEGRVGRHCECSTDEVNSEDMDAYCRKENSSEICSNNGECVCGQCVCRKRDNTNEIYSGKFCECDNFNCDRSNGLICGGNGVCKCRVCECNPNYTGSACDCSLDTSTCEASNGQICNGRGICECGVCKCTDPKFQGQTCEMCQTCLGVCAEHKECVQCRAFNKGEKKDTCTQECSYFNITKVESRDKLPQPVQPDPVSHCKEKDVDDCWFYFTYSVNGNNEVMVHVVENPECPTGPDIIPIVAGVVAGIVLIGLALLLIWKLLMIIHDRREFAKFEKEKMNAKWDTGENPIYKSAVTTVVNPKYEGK

Compound	IC50 [1] [nM]	IC50 [2] [nM]
COc1cnn(C)c(=O)c1-c1ccc(C[C@H](NC(=O)N[C@H]2CC3CCC2C3)C(=O)O)cc1 (stereo partly drawn) [Cpd 23]	> 5000	183
COc1cnn(C)c(=O)c1-c1ccc(C[C@H](NC(=O)N2CCN(c3ncc(C(F)(F)F)cc3Cl)CC2)C(=O)O)cc1 [Cpd 24]	> 5000	391
COc1cnn(C)c(=O)c1-c1ccc(C[C@H](NC(=O)N(C)Cc2ccccc2)C(=O)O)cc1 [Cpd 12]	> 5000	601
COc1cnn(C)c(=O)c1-c1ccc(C[C@H](NC(=O)N2CCC(O)C2)C(=O)O)cc1 (mixture of isomers) [Cpd 6]	> 5000	380
COc1cnn(CCO)c(=O)c1-c1ccc(C[C@H](NC(=O)Nc2c(Cl)cccc2Cl)C(=O)O)cc1 [Cpd 2]	2870	28
COc1cnn(C)c(=O)c1-c1ccc(C[C@H](NC(=O)N(C)CCO)C(=O)O)cc1 [Cpd 14]	> 5000	94
COc1cnn(C)c(=O)c1-c1ccc(C[C@H](NC(=O)N(C)C2CCCCC2)C(=O)O)cc1 [Cpd 11]	> 5000	53
COc1cnn(C)c(=O)c1-c1ccc(C[C@H](NC(=O)N(C)c2ccccc2)C(=O)O)cc1 [Cpd 10]	> 5000	63
COc1cnn(C)c(=O)c1-c1ccc(C[C@H](NC(=O)N(C(C)C)C(C)C)C(=O)O)cc1 [Cpd 1, 2-(3,3-Diisopropyl-ureido)-3-[4-(5-methoxy-2-methyl-3-oxo-2,3-dihydro-pyridazin-4-yl)-phenyl]-propionic acid]	> 1000	124
COc1cnn(C)c(=O)c1-c1ccc(C[C@H](NC(=O)N(Cc2ccccc2)CC(C)C)C(=O)O)cc1 [Cpd 18]	2650	395
COc1cnn(C)c(=O)c1-c1ccc(C[C@H](NC(=O)N2CCN(C)CC2)C(=O)O)cc1 [Cpd 5]	> 5000	469
COc1cnn(C)c(=O)c1-c1ccc(C[C@H](NC(=O)N(CCO)C2CCCCC2)C(=O)O)cc1 [Cpd 17]	> 5000	282
COc1cnn(C)c(=O)c1-c1ccc(C[C@H](NC(=O)N(Cc2ccccc2)C(C)C)C(=O)O)cc1 [Cpd 27]	> 5000	218
COc1cnn(C)c(=O)c1-c1ccc(C[C@H](NC(=O)NCCO)C(=O)O)cc1 [Cpd 7]	> 5000	789
COc1cnn(C)c(=O)c1-c1ccc(C[C@H](NC(=O)NC2CCCCC2)C(=O)O)cc1 [Cpd 20]	–	497
COc1cnn(C)c(=O)c1-c1ccc(C[C@H](NC(=O)N(CCO)c2ccccc2)C(=O)O)cc1 [Cpd 16]	> 5000	69
COc1cnn(C)c(=O)c1-c1ccc(C[C@H](NC(=O)NCc2ccccc2)C(=O)O)cc1 [Cpd 9]	> 5000	370
COc1cnn(CCO)c(=O)c1-c1ccc(C[C@H](NC(=O)Nc2ccccc2F)C(=O)O)cc1 [Cpd 4]	> 5000	2780
COc1cnn(C)c(=O)c1-c1ccc(C[C@H](NC(=O)N(C)C)C(=O)O)cc1 [Cpd 19]	–	1550
COc1cnn(C)c(=O)c1-c1ccc(C[C@H](NC(=O)N2CCN(C3C4CC5CC(C4)CC3C5)CC2)C(=O)O)cc1 (stereo partly drawn) [Cpd 25]	> 5000	2020
COc1cnn(C)c(=O)c1-c1ccc(C[C@H](NC(=O)N(O)C2CCCCC2)C(=O)O)cc1 [Cpd 26]	> 5000	598
COc1cnn(C)c(=O)c1-c1ccc(C[C@H](NC(=O)N(Cc2cccnc2)C2CN3CCC2CC3)C(=O)O)cc1 (mixture of isomers) [Cpd 40]	> 5000	1010

Continued, values first:

IC50 [1] [nM]	IC50 [2] [nM]	Compound
> 5000	694	COc1cnn(C)c(=O)c1-c1ccc(C[C@H](NC(=O)N(C)Cc2cnn(-c3ccccc3)c2)C(=O)O)cc1 [Cpd 29]
> 5000	1830	COc1cnn(C)c(=O)c1-c1ccc(C[C@H](NC(=O)N(C)C2CCN(Cc3ccccc3)C2)C(=O)O)cc1 (stereo partly drawn) [Cpd 35]
> 5000	156	COc1cnn(C)c(=O)c1-c1ccc(C[C@H](NC(=O)N2CCCN(c3nc4ccccc4o3)CC2)C(=O)O)cc1 [Cpd 30]
> 5000	297	CCN(CCN(C)C)C(=O)N[C@@H](Cc1ccc(-c2c(OC)cnn(C)c2=O)cc1)C(=O)O [Cpd 37]
> 5000	24	CCN(C(=O)N[C@@H](Cc1ccc(-c2c(OC)cnn(C)c2=O)cc1)C(=O)O)c1cc(O)ccc1C [Cpd 44]
> 5000	428	COc1cccc2c1OCCCN(C(=O)N[C@@H](Cc1ccc(-c3c(OC)cnn(C)c3=O)cc1)C(=O)O)C2 [Cpd 32]
> 5000	1450	COc1cnn(C)c(=O)c1-c1ccc(C[C@H](NC(=O)N(c2ccccc2)c2ccccc2)C(=O)O)cc1 [Cpd 47]
> 5000	871	COc1cnn(C)c(=O)c1-c1ccc(C[C@H](NC(=O)N2CCC[C@H]2CN2CCCC2)C(=O)O)cc1 [Cpd 39]
1800	29	COc1cnn(C)c(=O)c1-c1ccc(C[C@H](NC(=O)N2CCCCC2C)C(=O)O)cc1 (mixture of isomers) [Cpd 28]
> 5000	674	COc1cnn(C)c(=O)c1-c1ccc(C[C@H](NC(=O)N[C@@H]2CS(=O)(=O)C[C@H]2O)C(=O)O)cc1 [Cpd 36]
> 5000	52	COc1cnn(C)c(=O)c1-c1ccc(C[C@H](NC(=O)N(C)c2ccccc2OC(F)(F)F)C(=O)O)cc1 [Cpd 51]
> 5000	414	CC#CCN(Cc1ccco1)C(=O)N[C@@H](Cc1ccc(-c2c(OC)cnn(C)c2=O)cc1)C(=O)O [Cpd 31]
> 5000	310	COc1cnn(C)c(=O)c1-c1ccc(C[C@H](NC(=O)N(C(C)C)C2CCCCC2)C(=O)O)cc1 [Cpd 33]
–	354	CCCN(C(=O)N[C@@H](Cc1ccc(-c2c(OC)cnn(C)c2=O)cc1)C(=O)O)c1ccccc1 [Cpd 50]
